US12281304B2, “Compositions and methods for treating and preventing muscular disorders and dystrophies, steroid side effects, and inflammation” (Children's National Medical Center, priority 2018, dated 2025)

Molecular target: T1, TLR7 (Mus musculus, UniProt P58681)
T1 construct: endogenous in cells; host or cells: RAW 264.7 murine macrophage cells
T1 sequence (P58681 27-1050): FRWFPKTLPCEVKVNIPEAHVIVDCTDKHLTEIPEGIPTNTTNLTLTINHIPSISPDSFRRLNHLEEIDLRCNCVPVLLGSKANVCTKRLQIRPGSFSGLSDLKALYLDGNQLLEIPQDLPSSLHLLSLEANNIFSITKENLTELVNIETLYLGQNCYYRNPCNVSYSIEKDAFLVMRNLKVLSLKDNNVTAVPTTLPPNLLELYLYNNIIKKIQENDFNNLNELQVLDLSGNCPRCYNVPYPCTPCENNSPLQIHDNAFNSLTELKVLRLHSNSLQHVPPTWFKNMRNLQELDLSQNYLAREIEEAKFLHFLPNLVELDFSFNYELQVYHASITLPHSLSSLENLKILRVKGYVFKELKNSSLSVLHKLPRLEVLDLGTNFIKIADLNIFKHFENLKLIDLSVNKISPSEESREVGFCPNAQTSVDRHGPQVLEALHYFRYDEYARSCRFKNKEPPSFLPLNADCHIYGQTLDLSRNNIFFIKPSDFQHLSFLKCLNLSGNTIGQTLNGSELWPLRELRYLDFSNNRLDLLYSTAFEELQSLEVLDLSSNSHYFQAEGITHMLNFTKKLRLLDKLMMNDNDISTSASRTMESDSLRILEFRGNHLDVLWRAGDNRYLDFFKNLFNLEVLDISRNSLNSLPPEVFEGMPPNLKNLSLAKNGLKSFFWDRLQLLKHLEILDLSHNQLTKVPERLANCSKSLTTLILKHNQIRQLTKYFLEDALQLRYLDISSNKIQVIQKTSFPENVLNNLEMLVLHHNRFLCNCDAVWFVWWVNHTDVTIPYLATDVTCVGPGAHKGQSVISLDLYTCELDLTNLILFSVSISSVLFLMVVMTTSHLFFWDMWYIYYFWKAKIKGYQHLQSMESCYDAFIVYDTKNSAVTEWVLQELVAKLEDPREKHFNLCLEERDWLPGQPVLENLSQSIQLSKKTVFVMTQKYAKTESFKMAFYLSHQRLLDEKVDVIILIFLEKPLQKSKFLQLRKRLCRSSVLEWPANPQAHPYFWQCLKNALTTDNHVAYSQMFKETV
Test: Competition of TLR7 activation by uridine-deficient mutant miRNA in RAW 264.7 cells (secreted TNF-α)
Type: cell-based, murine
Conditions: constant dose of parent miRNA with increasing doses of mutant, 48 hours
Method: A) HEK 293 cells were transfected with a plasmid encoding TLR7-YFP (green) and either a Cy5-miR-146a mutant microRNA or Cy5-miR-142-3p mutant microRNA (red) […] post-transfection cells were fixed and confocal microscopy was performed using an Olympus FV-1000 at 100× magnification. […] B) RAW 264.7 murine macrophage cells were treated with a constant dose of miR-146a with increasing doses of a uridine-deficient miR-146a mutant. 48 hours later TLR7 activation was assessed via secreted TNF-α. […] C) RAW 264.7 murine macrophage cells were treated with a constant dose of […] with increasing doses of a uridine-deficient miR-142-3pmutant. 48 hours later TLR7 activation was assessed via secreted TNF-α.

Compound | competition of TLR7 activation by the parent miRNA
miR-142-3pmut: uridine-deficient mutant microRNA, sequence agaagagaaaccaacaaaaugga (SEQ ID NO:73) (AGAAGAGAAACCAACAAAAUGGA; listed as RNA, chemistry not given here; listed as Homo sapiens) | can compete away TLR7 activation
miR-146amut: uridine-deficient mutant microRNA, sequence agagaacagaaaaccacgggaa (SEQ ID NO:72) (AGAGAACAGAAAACCACGGGAA; listed as DNA, chemistry not given here; listed as Homo sapiens) | can compete away the activation of TLR7 by miR-146a

Tested on: miRNA sequences
Test: not given
Conditions: known mechanism listed in Table 6; compounds will be tested; cited from earlier work

Compound | Activity
O=C(Nc1cccc(Br)c1)c1cccc(S(=O)(=O)N2CCCCCC2)c1 [AK-7] | NAD-dependent deacetylase sirtuin 2 (SIRT2) inhibitor
COc1cc2nc(N3CCCN(C)CC3)nc(NC3CCN(Cc4ccccc4)CC3)c2cc1OC [BIX-01294] | G9a histone methyltransferase/ GLP histone methyltransferase (G9a/GLP) inhibitor
COC(=O)CNC(=O)C(=O)OC [DMOG] | Prolyl hydroxylase domain- containing protein (PHD/JMJD2A) inhibitor
CN(C)NC(=O)CCC(=O)O [Daminozide] | KDM2/KDM7 JmjC subfamily of histone demethylase inhibitor
O=C(/C=C/c1cccnc1)NCCCCC1CCN(C(=O)c2ccccc2)CC1 [FK-866 HCI] | Nicotinamide phosphoribosyl- transferase (Nampt) inhibitor
O=C(O)CCNc1cc(N2CCc3ccccc3CC2)nc(-c2ccccn2)n1 [GSK-J1 (cell impermeable)] | Jumonji H3K27 histone demethylase (JMJD3/UTX) inhibitor
Cc1ccc(-n2sc3ccccc3c2=O)cc1 [PBIT] | Jumanji AT-rich interactive domain 1 family of lysine demethylases (JARID1) inhibitor
N[C@@H]1C[C@H]1c1ccccc1 [Tranyl- cypromine hemisulfate] | Lysine-specific demethylase 1 (LSD1/BHC110) inhibitor

Molecular target: T2, Toll-like receptor 7 (Mus musculus, UniProt P58681)
T2 construct: endogenous in cells; host or cells: RAW 264.7 murine macrophage cells
T2 sequence (P58681 27-1050): T1 sequence (P58681 27-1050)
Test: Secreted TNF-α (ALPHA-LISA) in RAW 264.7 macrophages treated with miRNAs (TLR7 activation)
Type: cell-based, murine
Conditions: RAW 264.7 cells, 5 ug RNA, 6, 24 and 48 h
Method: FIG. 11A-11C depict how miR-146a and miR-142-3p bind to and activate the inflammatory Toll-like receptor 7. 11A) RAW 264.7 murine macrophage cells were treated the indicated treatments for 6, 24 and 48 h: 1) negative CTRL (−)=no treatment; 2) Gardiquimod (3 ug/mL)=+control for TLR7 activation; 3) miR-146a (5 ug) sequence: […] (SEQ ID NO:70), 4) miR-142-3p (5 ug) […] (SEQ ID NO:71); 5) miR-146amut (5 ug, sequence: […] (SEQ ID NO:72)); 6) miR-142-3pmut (5 ug, sequence: […] (SEQ ID NO:73)). After the indicated timepoints, media was collected and an ALPHA-LISA was performed to measure the amount of secreted TNF-α. […] B) RAW 264.7 murine macrophage cells were treated with gardiquimod or the indicated microRNAs for 48 h, where peak activation was observed. Secreted TNF-α was assessed as in A) using an ALPHA-LISA. C) HEK 293 cells were transfected with a plasmid encoding TLR7-YFP (green) and either a Cy5-miR-146a or Cy5-miR-142-3p (red). 48 h post-transfection cells were fixed and confocal microscopy was performed using an Olympus FV-1000 at 100× magnification.

Compound | secretion of TNF-α (TLR7 activation)
miR-142-3p: microRNA, sequence uguaguguuuccuacuuuaugga (SEQ ID NO:71) (UGUAGUGUUUCCUACUUUAUGGA; listed as RNA, chemistry not given here; listed as Homo sapiens) | activate secretion of TNF-α
miR-142-3pmut: uridine-deficient mutant microRNA, sequence agaagagaaaccaacaaaaugga (SEQ ID NO:73) (AGAAGAGAAACCAACAAAAUGGA; listed as RNA, chemistry not given here; listed as Homo sapiens) | prevents activation
miR-146amut: uridine-deficient mutant microRNA, sequence agagaacagaaaaccacgggaa (SEQ ID NO:72) (AGAGAACAGAAAACCACGGGAA; listed as DNA, chemistry not given here; listed as Homo sapiens) | prevents activation
